Test results reported in ChEMBL document CHEMBL1201862, “PubChem BioAssay data set” (2004).
Calls of active or inactive are those of the source.

Columns and labels:
[1] = molecular target: T1, Microphthalmia-associated transcription factor (Homo sapiens, UniProt O75030); test: TRPM1 promoter luciferase signal decrease, dose response, MITF inhibitor project, cell-based, SK-MEL-5, cherry-picked, set 3 (AID 493073); type: functional
T1 sequence (O75030 whole entry): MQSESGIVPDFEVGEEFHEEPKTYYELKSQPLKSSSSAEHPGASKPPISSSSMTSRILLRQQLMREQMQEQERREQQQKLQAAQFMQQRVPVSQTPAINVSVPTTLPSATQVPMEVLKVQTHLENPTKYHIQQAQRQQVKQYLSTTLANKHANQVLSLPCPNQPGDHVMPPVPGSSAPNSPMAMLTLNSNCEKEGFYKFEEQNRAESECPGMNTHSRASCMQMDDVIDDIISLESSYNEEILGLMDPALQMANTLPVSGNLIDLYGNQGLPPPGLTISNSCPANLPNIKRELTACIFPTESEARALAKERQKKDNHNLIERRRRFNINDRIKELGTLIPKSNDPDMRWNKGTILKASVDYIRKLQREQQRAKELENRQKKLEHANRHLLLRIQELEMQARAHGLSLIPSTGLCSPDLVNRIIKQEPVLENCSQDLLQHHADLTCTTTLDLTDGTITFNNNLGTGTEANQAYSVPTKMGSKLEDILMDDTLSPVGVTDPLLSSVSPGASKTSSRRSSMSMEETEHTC

[2] = HepG2 cell cytotoxicity, dose response, cytotoxicity control for Shn3 inhibitor project, CellTiter-Glo, cherry-picked (AID 624134); type: functional, cell-based
[3] = Shn3 3'UTR reporter inhibitors, dose response, cell-based, Clone20 osteoblasts, firefly luciferase, cherry-picked (AID 624132); type: functional;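 also: firefly luciferase luminescence from reporter carrying the Shn3 3'UTR in osteoblasts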
[4] = control 3'UTR Renilla luciferase suppression, dose response, counter-screen for Shn3 inhibitor project, cell-based, Clone20-Shn3RL, cherry-picked (AID 624133); type: functional
[5] = Luminescence Cell-Based Dose Response HTS to Identify Inhibitors of 5'UTR Stem-Loop Driven Prion Protein mRNA Translation in H4 Neuroglioblastoma Cells. [Related pubchem assays: 1827 (Project Summary), 1813 (Primary HTS)]; type: functional
[6] = test system: Streptococcus; test: Group A Streptococcus viability loss, dose response, counter-screen for streptokinase expression inhibitor project, luminescence, BacTiterGlo (AID 1915); type: functional, organism-based;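 also: potency for reduction of bacterial viability or growth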
[7] = molecular target: T2, Streptokinase A (Streptococcus pyogenes serotype M1, UniProt P10520); test: S. pyogenes streptokinase expression inhibitors, potency, dose response, plasminogen activation absorbance, OD405 (AID 1914); type: functional, Streptococcus pyogenes M1 GAS;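 also: secreted streptokinase activity via plasminogen activation per viability signal from cell pellet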
T2 sequence (P10520 whole entry): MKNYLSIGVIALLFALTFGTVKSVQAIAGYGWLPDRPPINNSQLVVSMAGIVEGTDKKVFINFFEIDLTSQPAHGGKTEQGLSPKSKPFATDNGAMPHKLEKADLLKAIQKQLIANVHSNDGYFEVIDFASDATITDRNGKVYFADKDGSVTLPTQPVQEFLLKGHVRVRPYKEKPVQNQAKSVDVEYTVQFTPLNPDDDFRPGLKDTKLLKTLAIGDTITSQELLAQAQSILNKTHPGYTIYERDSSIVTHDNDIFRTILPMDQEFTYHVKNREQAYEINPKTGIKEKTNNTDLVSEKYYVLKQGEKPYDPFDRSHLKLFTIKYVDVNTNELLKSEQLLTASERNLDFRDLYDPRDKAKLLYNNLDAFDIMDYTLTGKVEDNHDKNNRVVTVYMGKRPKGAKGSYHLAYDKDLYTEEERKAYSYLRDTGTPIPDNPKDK

[8] = inhibitors of firefly luciferase expression or activity, dose response, H4 neuroglioma cells, luminescence (AID 1990); type: functional, cell-based
[9] = test system: INS1; test: beta cell apoptosis inhibitors, cytokine rescue, dose response, luminescence, retest (AID 449756); type: functional, cell-based; details: Rattus norvegicus;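 also: cell death triggered by IL-1 beta plus TNF-alpha plus IFN-gamma mixture; protective hits raise ATP signal compared with cytokine alone wells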
[10] = test system: Vero; test: cells; type: functional; details: Chlorocebus sabaeus
[11] = test system: Streptococcus sp. 'group A'; test: growth inhibition of control SK(-) GAS strain, dose response, counter-screen for streptokinase expression inhibitor project, luminescence, kanamycin, BacTiterGlo, confirmation (AID 1900); type: functional, organism-based
[12] = inhibitors of SNCA 5'UTR-driven reporter translation, confirmation, H4 neuroglioma cells, luminescence (AID 1988); type: functional, cell-based
[13] = microbe, parasite or virus in culture; type: functional; details: Mycobacterium tuberculosis
[14] = molecular target: T3, Rac GTPase-activating protein 1 (Homo sapiens, UniProt Q9H0H5); test: MgcRacGAP GTPase-activating activity inhibitors, confirmation, biochemical, ADP Hunter fluorescence, primary and confirmatory (AID 624330); type: functional
T3 sequence (Q9H0H5 whole entry): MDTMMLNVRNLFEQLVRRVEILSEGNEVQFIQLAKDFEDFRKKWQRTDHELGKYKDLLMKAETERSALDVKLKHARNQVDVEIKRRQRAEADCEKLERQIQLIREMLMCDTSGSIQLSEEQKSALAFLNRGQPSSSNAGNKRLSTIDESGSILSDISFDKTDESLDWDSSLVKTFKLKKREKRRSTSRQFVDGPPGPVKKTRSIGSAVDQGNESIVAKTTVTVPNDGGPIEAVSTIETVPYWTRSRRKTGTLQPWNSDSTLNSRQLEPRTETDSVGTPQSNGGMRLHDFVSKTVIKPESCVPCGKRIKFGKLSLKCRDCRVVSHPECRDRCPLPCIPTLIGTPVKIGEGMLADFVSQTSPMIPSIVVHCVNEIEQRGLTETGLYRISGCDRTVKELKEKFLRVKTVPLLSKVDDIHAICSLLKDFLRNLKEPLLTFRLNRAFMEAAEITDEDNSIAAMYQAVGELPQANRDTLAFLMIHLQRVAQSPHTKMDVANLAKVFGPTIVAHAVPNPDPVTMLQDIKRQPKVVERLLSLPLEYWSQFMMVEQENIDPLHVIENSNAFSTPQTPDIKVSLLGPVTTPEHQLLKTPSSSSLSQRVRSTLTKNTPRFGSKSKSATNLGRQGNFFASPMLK

[15] = molecular target: Large T antigen (Simian virus 40, UniProt P03070); type: functional, Betapolyomavirus macacae;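 also: Confirmatory-stage PubChem screen for compounds that inhibit SV40 T antigen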
Chain of Large T antigen (P03070 whole entry): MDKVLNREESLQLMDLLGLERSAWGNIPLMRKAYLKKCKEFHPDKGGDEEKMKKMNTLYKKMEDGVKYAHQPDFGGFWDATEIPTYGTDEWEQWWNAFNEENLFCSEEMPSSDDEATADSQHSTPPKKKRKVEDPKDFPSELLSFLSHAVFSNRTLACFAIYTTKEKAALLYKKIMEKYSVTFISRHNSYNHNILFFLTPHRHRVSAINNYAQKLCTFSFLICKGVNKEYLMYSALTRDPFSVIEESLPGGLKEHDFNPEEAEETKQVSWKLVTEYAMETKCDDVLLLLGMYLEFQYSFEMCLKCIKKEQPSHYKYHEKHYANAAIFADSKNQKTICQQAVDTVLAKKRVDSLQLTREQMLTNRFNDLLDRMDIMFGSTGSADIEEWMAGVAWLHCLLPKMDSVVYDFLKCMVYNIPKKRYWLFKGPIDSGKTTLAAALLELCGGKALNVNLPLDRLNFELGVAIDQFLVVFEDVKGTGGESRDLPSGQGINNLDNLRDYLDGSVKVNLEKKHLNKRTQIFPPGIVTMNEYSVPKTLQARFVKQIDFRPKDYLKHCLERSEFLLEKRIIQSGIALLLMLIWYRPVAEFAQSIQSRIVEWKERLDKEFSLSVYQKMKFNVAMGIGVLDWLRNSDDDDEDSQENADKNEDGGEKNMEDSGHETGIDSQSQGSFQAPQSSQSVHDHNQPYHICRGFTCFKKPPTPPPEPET

[16] = test system: H9c2; test: cells; type: functional, cell-based; details: Rattus norvegicus, H9c2, Myocardium;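 also: confirmatory concentration-response retest of ultra-high-throughput screening hits for modulation of myocardial damage; cell death induced by hydrogen peroxide oxidative stress; compound pretreatment for 60 min then peroxide exposure for 2 h; potency is for protecting the cells against peroxide damage rather than for killing them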
[17] = NIH-3T3 fibroblast cytotoxicity, dose response, cytotoxicity control, cell-based, fluorescence, Alamar Blue, secondary assay (AID 2327); type: functional;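 also: NIH-3T3 mouse fibroblasts cultured with fluconazole at 8 µg/mL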
[18] = C. albicans growth with fluconazole, confirmation, fluorescence, retest (AID 2467); type: functional, cell-based
[19] = molecular target: T4, RNA-binding protein pos-1 (Caenorhabditis elegans, UniProt G5EF15); test: inhibitors of POS-1/mex-3 RNA binding, dose response, biochemical, fluorescence polarization (AID 1964);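 also: purified POS-1 fused to maltose binding protein made in E. coli; potency of compounds blocking POS-1 binding to fluorescent RNA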
T4 sequence (G5EF15 whole entry): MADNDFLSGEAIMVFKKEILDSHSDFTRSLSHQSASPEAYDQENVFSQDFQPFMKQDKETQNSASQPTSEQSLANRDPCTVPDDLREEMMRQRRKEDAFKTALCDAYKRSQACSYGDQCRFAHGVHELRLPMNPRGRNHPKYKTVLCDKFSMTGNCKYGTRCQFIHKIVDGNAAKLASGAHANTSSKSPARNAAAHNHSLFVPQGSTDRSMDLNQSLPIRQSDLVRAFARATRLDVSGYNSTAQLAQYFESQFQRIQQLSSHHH

[20] = molecular target: T5, Zinc finger protein mex-5 (Caenorhabditis elegans, UniProt Q9XUB2); test: MEX-5/TCR-2 RNA interaction inhibitors, dose response, biochemical, C. elegans, fluorescence polarization (AID 1960)
T5 sequence (Q9XUB2 whole entry): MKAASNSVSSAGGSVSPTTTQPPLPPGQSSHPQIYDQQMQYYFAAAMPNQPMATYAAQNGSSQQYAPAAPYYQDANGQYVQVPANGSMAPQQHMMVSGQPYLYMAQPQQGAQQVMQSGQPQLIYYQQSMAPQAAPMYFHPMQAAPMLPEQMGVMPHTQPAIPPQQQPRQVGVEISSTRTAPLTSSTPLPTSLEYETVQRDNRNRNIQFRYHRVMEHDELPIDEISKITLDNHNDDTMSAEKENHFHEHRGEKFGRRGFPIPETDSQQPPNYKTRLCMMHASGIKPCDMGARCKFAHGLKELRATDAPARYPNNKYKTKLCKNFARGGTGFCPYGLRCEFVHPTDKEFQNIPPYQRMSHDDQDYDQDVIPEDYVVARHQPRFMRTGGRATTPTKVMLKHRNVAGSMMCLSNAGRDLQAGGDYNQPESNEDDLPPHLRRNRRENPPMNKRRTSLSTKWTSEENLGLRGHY

SMILES: C=C1C(=O)O[C@@]23[C@H]1CC[C@@H](C)[C@@H]2CC[C@@]1(C)O[C@@H]31 [ARTEANNUIN B]
- AC50 [1]: 5.22 µM (active)

SMILES: c1ccc(CN2CCN(c3ncnc4c3[nH]c3ccccc34)CC2)cc1
- AC50 [2]: 31.4 µM (active)
- AC50 [3]: 2.06 µM (active)
- AC50 [4]: 5.4 µM (active)

SMILES: O=C1c2ccc3c4c(ccc(c24)C(=O)N1c1cccc(O)c1)C(=O)N(c1cccc(O)c1)C3=O
- EC50 [5]: 85.7 µM (active)
- EC50 [6]: 1.29 µM (active)
- EC50 [7]: > 150 µM (not active)
- EC50 [8]: 17.1 µM (active)
- AC50 [9]: 0.848 µM (active)
- CC50 [10]: > 25 µM (active)
- EC50 [11]: 1.22 µM (active)
- EC50 [12]: 15.1 µM (active)

SMILES: CCc1ccc(NCc2ccc(OC)c(Cn3ccnc3)c2)cc1
- CC50 [13]: 24.2 µM (active)

SMILES: CCOc1ccc(S(=O)(=O)N(C)c2ccc(OCC(=O)Nc3nc4ccccc4s3)cc2)cc1
- AC50 [2]: 34.6 µM (active)
- AC50 [3]: 2.82 µM (active)
- AC50 [4]: 4.06 µM (active)
- AC50 [9]: 7.73 µM (active)

SMILES: CCOc1ccc(NC(=S)N2CCC(NC(=O)c3ccccc3C)CC2)cc1
- EC50 [5]: > 120 µM (not active)
- EC50 [8]: > 120 µM (not active)
- EC50 [12]: > 120 µM (not active)

SMILES: Cc1cccc(C(=O)Nc2cccc(S(=O)(=O)NCc3ccco3)c2)c1
- CC50 [10]: 23.6 µM (active)

SMILES: Cc1ccc(NC(CNS(=O)(=O)c2ccc(Cl)cc2)c2ccccc2)cc1 (stereo unspecified)
- EC50 [5]: 45.4 µM (active)
- EC50 [8]: > 120 µM (not active)
- EC50 [12]: 10.3 µM (active)

SMILES: O=C(Nc1ccc(N2CCOCC2)c(Cl)c1)c1c(F)c(F)c(F)c(F)c1F
- CC50 [13]: > 40 µM (active)

SMILES: O=C(COc1cccc2cccnc12)N/N=C/c1ccc(O)cc1
- IC50 [14]: 77 µM (active)
- IC50 [15]: 19.5 µM (active)

SMILES: CC(C)(C)c1ccc(OCC(=O)Nc2ccc3c4c(cccc24)C(=O)NC3=O)cc1
- EC50 [5]: 10.8 µM (active)
- EC50 [8]: > 120 µM (not active)
- IC50 [16]: 20.9 µM (active)
- EC50 [12]: > 120 µM (not active)

SMILES: COc1ccccc1-c1nnc(NC(=O)c2ccc(S(=O)(=O)N(C)C)cc2)o1
- EC50 [5]: > 120 µM (not active)
- EC50 [8]: > 120 µM (not active)
- EC50 [12]: > 120 µM (not active)

SMILES: CCN1C(=O)/C(=C/c2c[nH]nc2-c2ccccc2)SC1=S
- EC50 [5]: > 120 µM (not active)
- EC50 [8]: > 120 µM (not active)
- EC50 [12]: > 120 µM (not active)

SMILES: CCC(=O)N1c2ccc(S(=O)(=O)CCC(=O)N3CCn4c3nc3ccccc34)cc2CC1C (stereo unspecified)
- CC50 [13]: > 40 µM (active)
- EC50 [17]: 42.9 µM (active)
- EC50 [18]: 4.5 µM (active)

SMILES: CCCCN(CCCC)c1nc(-c2ccncc2)nc2ccccc12
- EC50 [6]: 8.44 µM (active)
- CC50 [13]: 29.3 µM (active)
- EC50 [11]: 5.38 µM (active)

SMILES: C=CCn1c(SCc2ccc(C#N)cc2)nnc1-c1cccc(OC)c1
- EC50 [5]: 48.7 µM (active)
- EC50 [8]: 18.6 µM (active)
- EC50 [12]: > 120 µM (not active)

SMILES: CCCSc1nn2c(=O)c3ccccc3nc2s1
- CC50 [13]: > 40 µM (active)

SMILES: C=C1C(=O)OC2CC1C(OC(C)=O)CC(C)=CCCC(C)=CCCC2(C)O (stereo unspecified)
- AC50 [2]: 15.1 µM (active)
- AC50 [3]: 0.91 µM (active)
- AC50 [4]: 4.19 µM (active)

SMILES: Cc1c(C(=O)Nc2ccc(F)c(F)c2)oc2ccc(S(=O)(=O)N3CCCCC3)cc12
- AC50 [2]: > 70 µM (inactive)
- AC50 [3]: 7.05 µM (active)
- AC50 [4]: 28 µM (active)

SMILES: COc1cc(/C=C2\C(=O)NN(c3ccccc3)C2=O)cc([N+](=O)[O-])c1O
- EC50 [19]: > 300 µM (not active)
- EC50 [20]: 37.5 µM (active)
- EC50 [17]: 21.2 µM (inconclusive)
- IC50 [15]: > 100 µM (active)
- EC50 [18]: > 38 µM (not active)

SMILES: CC(C)N1CCc2c(sc(NC(=O)c3ccc4ccccc4c3)c2C(N)=O)C1
- EC50 [19]: > 300 µM (not active)
- EC50 [20]: > 300 µM (inconclusive)
- CC50 [10]: > 25 µM (active)
